Assay results: patent US9040534B2, “[1,2,4]triazolo[4,3-a]pyrazines as P2X7 modulators” (Janssen Pharmaceutica NV, priority 2013, dated 2015)

Assays:
P2X7 [1] = biological target: T1, P2X7 (Homo sapiens (Human), UniProt Q99572); assay: Ca2+ flux (FLIPR) in 1321N1 cells expressing recombinant human P2X7 channel; assay type: cell-based; conditions: 250 μM BzATP
Description: (§1) (A) Ca^2+ Flux: 1321N1 cells expressing the recombinant human, rat or mouse P2X7 channel was cultured in HyQ DME/(HyClone/Dulbecco's Modified Eagle Medium) high glucose supplemented with 10% Fetal Bovine Serum (FBS) and appropriate selection marker. Cells were seeded at a density of 25000 cells/well (96-well clear bottom black walled plates) in 100 μl volume/well. On the day of the experiment, cell plates were washed with assay buffer, containing (in mM): 130 NaCl, 2 KCl, 1 CaCl2, 1 MgCl2, 10 HEPES, 5 glucose; pH 7.40 and 300 mOs. After the wash, cells were loaded with the Calcium-4 dye (Molecular Device) and incubated in the dark for 60 minutes. Test compounds were prepared at 250× the test concentration in neat DMSO. Intermediate 96-well compound plates were prepared by transferring 1.2 μL of the compound into 300 μL of assay buffer. A further 3× dilution occurred when transferring 50 μL/well of the compound plate to 100 μL/well in the cell plate. Cells were incubated with test compounds and dye for 30 minutes. […] The fluorescence change was measured 180 seconds after adding the agonist.

rat P2X7 = rat P2X7 (Rattus norvegicus (Rat), UniProt Q64663); assay: Ca2+ flux (FLIPR) in 1321N1 cells expressing recombinant rat P2X7 channel; assay type: cell-based; conditions: 250 μM BzATP
Sequence of rat P2X7 (Q64663 whole entry): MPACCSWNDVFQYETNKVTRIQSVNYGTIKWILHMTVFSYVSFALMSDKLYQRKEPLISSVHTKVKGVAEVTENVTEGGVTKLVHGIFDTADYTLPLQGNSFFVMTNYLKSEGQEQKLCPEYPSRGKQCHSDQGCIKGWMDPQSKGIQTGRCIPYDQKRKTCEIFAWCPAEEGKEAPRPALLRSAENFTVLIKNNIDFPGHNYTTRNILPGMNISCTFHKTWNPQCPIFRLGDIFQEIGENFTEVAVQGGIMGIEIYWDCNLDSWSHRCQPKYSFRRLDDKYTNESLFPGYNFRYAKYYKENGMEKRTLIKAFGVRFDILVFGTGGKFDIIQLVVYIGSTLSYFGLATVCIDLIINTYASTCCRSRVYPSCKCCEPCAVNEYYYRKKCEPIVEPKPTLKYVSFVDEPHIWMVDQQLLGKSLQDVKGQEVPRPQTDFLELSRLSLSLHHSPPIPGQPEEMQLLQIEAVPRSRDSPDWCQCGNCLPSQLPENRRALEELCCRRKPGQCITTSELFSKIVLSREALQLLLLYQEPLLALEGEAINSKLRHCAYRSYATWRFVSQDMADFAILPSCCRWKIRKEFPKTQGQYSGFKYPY
Description: as §1

P2X7 [2] = biological target: T1, P2X7; assay: Radioligand binding, human P2X7-1321N1 cell membranes, tritiated A-804598 tracer; conditions: 1 hour at 4° C.
Description: (B) Radioligand binding: human or rat P2X7-1321N1 cells were collected and frozen @ −80° C. On the day of the experiment, cell membrane preparations were made according to standard published methods. […] The compound can be prepared as described in the literature. […] The assay was terminated by filtration (GF/B filters pre-soaked with 0.3% PEI) and washed with washing buffer (Tris-HCl 50 mM). The IC50 generated in the binding assay was corrected for tracer concentration and affinity of the tracer to derive at the affinity (Ki) of the test compounds.

T1 sequence (Q99572 whole entry): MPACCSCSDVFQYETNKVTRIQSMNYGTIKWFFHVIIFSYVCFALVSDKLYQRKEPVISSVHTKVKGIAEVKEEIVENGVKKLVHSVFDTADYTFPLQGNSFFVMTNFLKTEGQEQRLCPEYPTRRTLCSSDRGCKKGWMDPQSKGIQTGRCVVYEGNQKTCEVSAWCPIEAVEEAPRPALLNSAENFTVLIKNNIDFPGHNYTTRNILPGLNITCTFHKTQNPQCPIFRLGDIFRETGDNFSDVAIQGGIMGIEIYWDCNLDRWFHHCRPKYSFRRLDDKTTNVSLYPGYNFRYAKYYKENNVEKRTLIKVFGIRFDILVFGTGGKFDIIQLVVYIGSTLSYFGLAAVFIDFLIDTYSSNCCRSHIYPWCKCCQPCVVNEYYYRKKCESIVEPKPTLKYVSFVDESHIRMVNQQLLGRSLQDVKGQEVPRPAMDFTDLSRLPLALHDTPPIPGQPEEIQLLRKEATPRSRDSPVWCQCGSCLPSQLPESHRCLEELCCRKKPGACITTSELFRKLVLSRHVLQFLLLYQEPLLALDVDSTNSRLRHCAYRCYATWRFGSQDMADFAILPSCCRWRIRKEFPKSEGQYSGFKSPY

IC50 (P2X7 [1]) [nM] | IC50 (rat P2X7) [µM] | Ki (P2X7 [2]) [nM] | Structure (SMILES)
2690 | > 10 | – | CC(c1cccc(C(F)(F)F)c1Cl)N1CCn2c(nnc2-c2cnccn2)C1=O (racemic) [Example 4, (±)7-{1-[2-Chloro-3-(trifluoromethyl)phenyl]ethyl}-3-pyrazin-2-yl-6,7-dihydro[1,2,4]triazolo[4,3-a]pyrazin-8(5H)-one]
7.9 | 0.794 | 7.9 | O=C1c2nnc(-c3ncc(F)cn3)n2CC(C2CC2)N1Cc1cccc(C(F)(F)F)c1Cl (racemic) [Example 70, (±)-7-[2-Chloro-3-(trifluoromethyl)benzyl]-6-cyclopropyl-3-(5-fluoropyrimidin-2-yl)-6,7-dihydro[1,2,4]triazolo[4,3-a]pyrazin-8(5H)-one]
148 | 28.4 | 63.1 | O=C1c2nnc(-c3ccc(F)cc3)n2CCN1Cc1cccc(C(F)(F)F)c1Cl [Example 1, 7-[2-Chloro-3-(trifluoromethyl)benzyl]-3-(4-fluorophenyl)-6,7-dihydro[1,2,4]triazolo[4,3-a]pyrazin-8(5H)-one]
942 | 2.56 | – | O=C1c2nnc(-c3cnccn3)n2CCN1Cc1c(Cl)cccc1Cl [Example 5, 7-(2,6-Dichlorobenzyl)-3-pyrazin-2-yl-6,7-dihydro[1,2,4]triazolo[4,3-a]pyrazin-8(5H)-one]
– | > 10 | – | O=C1c2nnc(-c3cnccn3)n2CCN1Cc1cccc(F)c1F [Example 6, 7-(2,3-Difluorobenzyl)-3-pyrazin-2-yl-6,7-dihydro[1,2,4]triazolo[4,3-a]pyrazin-8(5H)-one]
3400 | > 10 | – | CS(=O)(=O)c1cc(Cl)ccc1CN1CCn2c(nnc2-c2cnccn2)C1=O [Example 7, 7-[4-Chloro-2-(methylsulfonyl)benzyl]-3-pyrazin-2-yl-6,7-dihydro[1,2,4]triazolo[4,3-a]pyrazin-8(5H)-one]
96.6 | 3.15 | 25.1 | C[C@H]1Cn2c(nnc2-c2cn[nH]c2)C(=O)N1Cc1cccc(C(F)(F)F)c1Cl [Example 25, (6S)-7-[2-Chloro-3-(trifluoromethyl)benzyl]-6-methyl-3-(1H-pyrazol-4-yl)-6,7-dihydro[1,2,4]triazolo[4,3-a]pyrazin-8(5H)-one]
1.2 | 0.135 | 4 | C[C@H]1Cn2c(nnc2-c2nccs2)C(=O)N1Cc1cccc(C(F)(F)F)c1Cl [Example 31, (6S)-7-[2-Chloro-3-(trifluoromethyl)benzyl]-6-methyl-3-(1,3-thiazol-2-yl)-6,7-dihydro[1,2,4]triazolo[4,3-a]pyrazin-8(5H)-one]
1 | – | – | C[C@H]1Cn2c(nnc2-c2ncc(F)cn2)C(=O)N1Cc1cccc(C(F)(F)F)c1Cl [Example 34, (6S)-7-[2-Chloro-3-(trifluoromethyl)benzyl]-3-(5-fluoropyrimidin-2-yl)-6-methyl-6,7-dihydro[1,2,4]triazolo[4,3-a]pyrazin-8(5H)-one]
0.7 | 0.0106 | 2 | COc1ccnc(-c2nnc3n2C[C@H](C)N(Cc2cccc(C(F)(F)F)c2Cl)C3=O)c1 [Example 35, (6S)-7-[2-Chloro-3-(trifluoromethyl)benzyl]-3-(4-methoxypyridin-2-yl)-6-methyl-6,7-dihydro[1,2,4]triazolo[4,3-a]pyrazin-8(5H)-one]
977 | 2.61 | – | C[C@H]1Cn2c(nnc2-c2csc(C(F)(F)F)n2)C(=O)N1Cc1cccc(C(F)(F)F)c1Cl [Example 38, (6S)-7-[2-Chloro-3-(trifluoromethyl)benzyl]-6-methyl-3-[2-(trifluoromethyl)-1,3-thiazol-4-yl]-6,7-dihydro[1,2,4]triazolo[4,3-a]pyrazin-8(5H)-one]
22.4 | 8.67 | 27.5 | Cc1nc(C)c(-c2nnc3n2C[C@H](C)N(Cc2cccc(C(F)(F)F)c2Cl)C3=O)s1 [Example 39, (6S)-7-[2-Chloro-3-(trifluoromethyl)benzyl]-3-(2,4-dimethyl-1,3-thiazol-5-yl)-6-methyl-6,7-dihydro[1,2,4]triazolo[4,3-a]pyrazin-8(5H)-one]
17.5 | > 10 | 7.9 | C[C@H]1Cn2c(nnc2-c2ncc(Br)cn2)C(=O)N1Cc1cccc(C(F)(F)F)c1Cl [Example 42, (6S)-3-(5-Bromopyrimidin-2-yl)-7-[2-chloro-3-(trifluoromethyl)benzyl]-6-methyl-6,7-dihydro[1,2,4]triazolo[4,3-a]pyrazin-8(5H)-one]
177 | 19.9 | – | C[C@H]1Cn2c(nnc2-c2cccnn2)C(=O)N1Cc1cccc(C(F)(F)F)c1Cl [Example 44, (6S)-7-[2-Chloro-3-(trifluoromethyl)benzyl]-6-methyl-3-pyridazin-3-yl-6,7-dihydro[1,2,4]triazolo[4,3-a]pyrazin-8(5H)-one]
3.3 | 0.154 | 12.6 | Cc1cccc(-c2nnc3n2C[C@H](C)N(Cc2cccc(C(F)(F)F)c2Cl)C3=O)n1 [Example 46, (6S)-7-[2-Chloro-3-(trifluoromethyl)benzyl]-6-methyl-3-(6-methylpyridin-2-yl)-6,7-dihydro[1,2,4]triazolo[4,3-a]pyrazin-8(5H)-one]
386 | 13.2 | – | C[C@H]1Cn2c(nnc2C2CCC2)C(=O)N1Cc1cccc(C(F)(F)F)c1Cl [Example 49, (6S)-7-[2-Chloro-3-(trifluoromethyl)benzyl]-3-cyclobutyl-6-methyl-6,7-dihydro[1,2,4]triazolo[4,3-a]pyrazin-8(5H)-one]
371 | > 10 | – | C[C@H]1Cn2c(nnc2C2CC2)C(=O)N1Cc1cccc(C(F)(F)F)c1Cl [Example 50, (6S)-7-[2-Chloro-3-(trifluoromethyl)benzyl]-3-cyclopropyl-6-methyl-6,7-dihydro[1,2,4]triazolo[4,3-a]pyrazin-8(5H)-one]
766 | > 10 | – | C[C@H]1Cn2c(nnc2C2CCCCC2)C(=O)N1Cc1cccc(C(F)(F)F)c1Cl [Example 51, (6S)-7-[2-Chloro-3-(trifluoromethyl)benzyl]-3-cyclohexyl-6-methyl-6,7-dihydro[1,2,4]triazolo[4,3-a]pyrazin-8(5H)-one]
– | > 10 | – | C[C@H]1Cn2c(nnc2C2CCOCC2)C(=O)N1Cc1cccc(C(F)(F)F)c1Cl [Example 53, (6S)-7-[2-Chloro-3-(trifluoromethyl)benzyl]-6-methyl-3-(tetrahydro-2H-pyran-4-yl)-6,7-dihydro[1,2,4]triazolo[4,3-a]pyrazin-8(5H)-one]
– | > 10 | – | C[C@H]1Cn2c(nnc2-c2cnccn2)C(=O)N1Cc1ccccc1 [Example 79, (6S)-7-Benzyl-6-methyl-3-pyrazin-2-yl-6,7-dihydro[1,2,4]triazolo[4,3-a]pyrazin-8(5H)-one]
– | 41.4 | – | C[C@H]1Cn2c(nnc2-c2cnccn2)C(=O)N1Cc1ccccc1Cl [Example 80, (6S)-7-(2-Chlorobenzyl)-6-methyl-3-pyrazin-2-yl-6,7-dihydro[1,2,4]triazolo[4,3-a]pyrazin-8(5H)-one]
822 | 11.1 | – | C[C@H]1Cn2c(nnc2-c2cnccn2)C(=O)N1Cc1ccccc1OC(F)(F)F [Example 83, (6S)-6-Methyl-3-pyrazin-2-yl-7-[2-(trifluoromethoxy)benzyl]-6,7-dihydro[1,2,4]triazolo[4,3-a]pyrazin-8(5H)-one]
340 | > 10 | – | C[C@H]1Cn2c(nnc2-c2cnccn2)C(=O)N1Cc1cc2c(cc1Cl)OCO2 [Example 84, (6S)-7-[(6-Chloro-1,3-benzodioxol-5-yl)methyl]-6-methyl-3-pyrazin-2-yl-6,7-dihydro[1,2,4]triazolo[4,3-a]pyrazin-8(5H)-one]
– | 1.37 | – | C[C@H]1Cn2c(nnc2-c2cnccn2)C(=O)N1Cc1c(Cl)cccc1Cl [Example 86, (6S)-7-(2,6-Dichlorobenzyl)-6-methyl-3-pyrazin-2-yl-6,7-dihydro[1,2,4]triazolo[4,3-a]pyrazin-8(5H)-one]
26.4 | 7.28 | – | C[C@H]1Cn2c(nnc2-c2cnccn2)C(=O)N1Cc1ccccc1[N+](=O)[O-] [Example 89, (6S)-6-Methyl-7-(2-nitrobenzyl)-3-pyrazin-2-yl-6,7-dihydro[1,2,4]triazolo[4,3-a]pyrazin-8(5H)-one]
1000 | 20 | – | C[C@H]1Cn2c(nnc2-c2cnccn2)C(=O)N1Cc1cc([N+](=O)[O-])ccc1Cl [Example 90, (6S)-7-(2-Chloro-5-nitrobenzyl)-6-methyl-3-pyrazin-2-yl-6,7-dihydro[1,2,4]triazolo[4,3-a]pyrazin-8(5H)-one]
1220 | 18.9 | – | C[C@H]1Cn2c(nnc2-c2cnccn2)C(=O)N1Cc1cc(N)ccc1Cl [Example 91, (6S)-7-(5-Amino-2-chlorobenzyl)-6-methyl-3-pyrazin-2-yl-6,7-dihydro[1,2,4]triazolo[4,3-a]pyrazin-8(5H)-one]
